# Earlier results in paper PMC3384292 (Journal of the American Chemical Society, 2012).
# Target: thrombin (Homo sapiens, UniProt P00734)
substance,measurement,value
hirudin,inhibition constant to thrombin,femtomolar
